Reference: ChEMBL document CHEMBL1201862, “PubChem BioAssay data set” (2004)
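Values below derive from 48-hour exposures of cells grown in 96-well plates, with endpoints linearly interpolated between the two concentrations bracketing the appropriate inhibition level. Here, GI50 denotes the concentration required for 50% inhibition of growth.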 The source made the active and inactive calls. No stated cut-off is given here; in the data, active = GI50 up to about 1.1 µM and inactive = higher.

Experiments:
Assay in all cases: growth of human tumour cells (NCI), 48 h
[1] = test system: SK-MEL-2
[2] = test system: COLO 205
[3] = test system: SK-OV-3
[4] = test system: HCC 2998
[5] = test system: KM12
[6] = test system: OVCAR-3
[7] = test system: MCF7
[8] = test system: OVCAR-4
[9] = test system: NCI-H460
[10] = test system: U-251
[11] = test system: HT-29
[12] = test system: SNB-75
[13] = test system: SR
[14] = test system: K562
[15] = test system: IGROV-1
[16] = test system: RXF 393
[17] = test system: CCRF-CEM
[18] = test system: ACHN
[19] = test system: MDA-MB-231
[20] = test system: Hs-578T
[21] = test system: SF-268
[22] = test system: T47D
[23] = test system: SN12C
[24] = test system: DLD-1
[25] = test system: UACC-62
[26] = test system: HOP-62
[27] = test system: M14
[28] = test system: EKVX
[29] = test system: TK-10
[30] = test system: HOP-92
[31] = test system: A498
[32] = test system: DU-145
[33] = test system: BT-549
[34] = test system: XF498
[35] = test system: MDA-MB-435
[36] = test system: SNB-19
[37] = test system: SNB-78
[38] = test system: NCI/ADR-RES
[39] = test system: UACC-257
[40] = test system: SK-MEL-5
[41] = test system: HCT-15
[42] = test system: KM-20L2
[43] = test system: MOLT-4
[44] = test system: HCT-116
[45] = test system: SF-295
[46] = test system: NCI-H23
[47] = test system: HL-60
[48] = test system: A549
[49] = test system: OVCAR-8
[50] = test system: SW-620
[51] = test system: RPMI-8226
[52] = test system: UO-31
[53] = test system: OVCAR-5
[54] = test system: DMS-114
[55] = test system: SK-MEL-28
[56] = test system: LOX IMVI
[57] = test system: LXFL 529
[58] = test system: PC-3
[59] = test system: MDA-N
[60] = test system: NCI-H522
[61] = test system: CAKI-1
[62] = test system: 786-0
[63] = test system: Malme-3M
[64] = test system: NCI-H226
[65] = test system: SF-539
[66] = test system: M19-MEL

Measured: GI50

N=C1C=CC(=C(c2ccc(N)cc2)c2ccc(N)cc2)C=C1
active: [10] 0.406 µM | [12] 0.519 µM | [20] 0.51 µM | [21] 0.542 µM | [22] 0.968 µM | [23] 0.444 µM | [33] 0.982 µM | [36] 0.532 µM | [40] 1.09 µM
inactive: [1] 2.9 µM | [2] 1.64 µM | [3] 13.1 µM | [4] 4.93 µM | [5] 3.01 µM | [6] 10 µM | [7] 3.11 µM | [8] 9.93 µM | [9] 3.61 µM | [11] 3.77 µM | [13] 11.1 µM | [14] 2.39 µM | [15] 9.86 µM | [16] 6.5 µM | [17] 3.15 µM | [18] 8.17 µM | [19] 4.66 µM | [24] 5.12 µM | [25] 3.87 µM | [26] 3.3 µM | [27] 4.05 µM | [28] 5.58 µM | [29] 10.2 µM | [30] 3.22 µM | [31] 6.97 µM | [32] 5.71 µM | [34] 2.38 µM | [35] 4.18 µM | [37] 4.14 µM | [38] 16.2 µM | [39] 4.59 µM | [42] 4.3 µM | [43] 3.73 µM | [44] 3.87 µM | [45] 3.99 µM | [46] 3.63 µM | [47] 3.85 µM | [48] 3.73 µM | [49] 1.91 µM | [50] 3.68 µM | [51] 2.29 µM | [52] 12.5 µM | [53] 9.27 µM | [54] 2.18 µM | [55] 8.13 µM | [56] 3.91 µM | [57] 1.57 µM | [58] 3.12 µM | [59] 4.84 µM | [60] 2.64 µM | [61] 19.1 µM | [62] 2.36 µM | [63] 3.18 µM | [64] 3.68 µM | [65] 2.02 µM | [66] 4.13 µM
12.8 µM: [41]

CN(/N=C(\C(=O)O)c1ccccc1)C1=NCCN1
inactive: [1] > 100 µM | [2] > 100 µM | [3] > 100 µM | [4] > 100 µM | [5] > 100 µM | [6] > 100 µM | [7] > 100 µM | [8] > 100 µM | [9] > 100 µM | [11] > 100 µM | [12] > 100 µM | [13] > 100 µM | [14] > 100 µM | [15] 54.2 µM | [16] > 100 µM | [17] > 100 µM | [18] > 100 µM | [19] > 100 µM | [20] > 100 µM | [21] > 100 µM | [22] > 100 µM | [23] > 100 µM | [25] > 100 µM | [26] > 100 µM | [28] 83.6 µM | [29] > 100 µM | [30] > 100 µM | [31] > 100 µM | [32] > 100 µM | [33] 47.2 µM | [35] > 100 µM | [38] > 100 µM | [39] > 100 µM | [40] > 100 µM | [43] > 100 µM | [44] > 100 µM | [45] > 100 µM | [46] > 100 µM | [47] > 100 µM | [48] > 100 µM | [49] > 100 µM | [50] > 100 µM | [51] > 100 µM | [52] > 100 µM | [53] > 100 µM | [55] > 100 µM | [56] > 100 µM | [58] > 100 µM | [59] > 100 µM | [60] > 100 µM | [61] > 100 µM | [62] > 100 µM | [63] > 100 µM | [64] > 100 µM | [65] > 100 µM
> 100 µM: [41]

COC(=O)NC(=O)c1cn(C2OC(CO)C(O)C2O)c(=O)[nH]c1=O (stereo not given)
> 100 µM: [41]
inactive: [1] > 100 µM | [2] > 100 µM | [3] > 100 µM | [4] > 100 µM | [5] > 100 µM | [6] > 100 µM | [8] > 100 µM | [9] > 100 µM | [10] > 100 µM | [11] > 100 µM | [12] > 100 µM | [13] > 100 µM | [14] > 100 µM | [15] > 100 µM | [18] > 100 µM | [21] > 100 µM | [23] > 100 µM | [24] > 100 µM | [25] > 100 µM | [26] > 100 µM | [27] > 100 µM | [29] > 100 µM | [30] > 100 µM | [36] > 100 µM | [37] > 100 µM | [39] > 100 µM | [42] > 100 µM | [43] > 100 µM | [44] > 100 µM | [45] > 100 µM | [46] > 100 µM | [47] > 100 µM | [48] > 100 µM | [49] > 100 µM | [50] > 100 µM | [51] > 100 µM | [52] > 100 µM | [53] > 100 µM | [55] > 100 µM | [56] > 100 µM | [57] > 100 µM | [60] > 100 µM | [61] > 100 µM | [62] > 100 µM | [63] > 100 µM | [64] > 100 µM | [65] > 100 µM | [66] > 100 µM

CCOC(=O)C1=C(C)NC(C)=C(C(=O)OCCNC(=O)c2ccc(N=[N+]=[N-])cc2)C1c1ccccc1C(F)(F)F (stereo not given) [AZIDOPINE]
8.45 µM: [41]
inactive: [1] 6.53 µM | [2] 6.25 µM | [3] 13.3 µM | [4] 13.2 µM | [5] 7.85 µM | [6] 9.06 µM | [7] 6.43 µM | [8] 12.2 µM | [9] 9.12 µM | [10] 10.9 µM | [11] 9.46 µM | [12] > 10 µM | [13] 4.44 µM | [14] 7.83 µM | [15] 18.7 µM | [16] 9.57 µM | [17] 6.55 µM | [18] 7.64 µM | [19] 14 µM | [20] 12.7 µM | [21] 10.3 µM | [22] 8.93 µM | [23] 15.1 µM | [25] 11.2 µM | [26] > 21.5 µM | [27] 9.98 µM | [28] 10.7 µM | [29] 8.22 µM | [30] 2.01 µM | [31] > 10 µM | [32] 10.5 µM | [33] 13.9 µM | [35] 9.27 µM | [36] 15.4 µM | [38] 8.28 µM | [39] 11.5 µM | [40] 7.85 µM | [43] 4.09 µM | [44] 9.73 µM | [45] 8.61 µM | [46] 11.3 µM | [47] 7.66 µM | [48] 8 µM | [49] 14.8 µM | [50] 15.3 µM | [51] 4.37 µM | [52] 4.79 µM | [53] 19.9 µM | [55] 13.4 µM | [56] 10.7 µM | [58] 3.28 µM | [59] 10.2 µM | [60] 8.39 µM | [61] 12.4 µM | [62] 13.3 µM | [63] 14 µM | [64] 15 µM | [65] 19.1 µM
